“And” between values parts separate entries of the source, which are not always exact repeats. Identical values can stand only once.
Experiments:
Pseudomonas aeruginosa = test: Antibacterial activity against Pseudomonas aeruginosa ATCC 27853 incubated for 18 hrs by agar dilution assay; type: functional
[1] = Ulcerogenic activity in fasted albino mouse assessed as incidence of gastric ulceration at 10 mg/kg, po for 3 days (reference value: 0 %); type: toxicity, organism-based; conditions: in vivo, 72 h, time 3 day
Peritoneal macrophage [2] = test: Antiinflammatory activity in […] mouse Peritoneal macrophages assessed as inhibition of LPS-induced NO production at 10 uM preincubated for 1 hr followed by LPS stimulation measured after 24 hrs by Griess method relative to control (reference value: 0.0 %); type: functional; set-up: scale not given: the % may be the effect or the level left; conditions: time 25 hrs
Mus musculus [3] = test: Analgesic activity in albino mouse assessed as protection at 10 mg/kg, ip measured after 30 mins by hot plate test (reference value: 0 %); type: functional; conditions: 0.5 h
Splenocyte [4] = test: Immunomodulatory activity in Swiss albino mouse splenocytes assessed as cell viability at 10 uM by measuring inhibition of stimulation index incubated for 72 hrs in presence of mitogenic stimulus phytohaemagglutinin by MTT assay relative to indomethacin; type: functional; conditions: read-out: Activity
[5] = Ulcerogenic activity in fasted albino mouse assessed as average severity of ulcers in gastric mucosa at 10 mg/kg, po for 3 days (reference value: 0); type: toxicity, organism-based; conditions: in vivo, 72 h, time 3 day
Peritoneal macrophage [6] = test: Antiinflammatory activity in […] mouse Peritoneal macrophages assessed as reduction in LPS-induced NO production by measuring reduction in stimulation index at 10 uM preincubated for 1 hr followed by LPS stimulation measured after 24 hrs by Griess method (reference value: 27.31 +/- 2.56 uM); type: functional; conditions: time 25 hrs
Candida albicans = test: Antifungal activity against Candida albicans incubated for 18 to 24 hrs by CLSI method; type: functional; conditions: time 18-24 hrs
Rattus norvegicus [7] = test: Antiinflammatory activity in Wistar rat model of carrageenan-induced paw edema assessed as reduction in thickness of paw edema at 10 mg/kg, ip pretreated for 1 hr followed by carrageenan challenge and measured after 3 hrs (reference value: 1.79 +/-0.07 mm); type: functional; conditions: time 4 hrs
Mus musculus [8] = test: Analgesic activity in albino mouse assessed as forepaw licking/jumping latency time at 10 mg/kg, ip measured after 30 mins by hot plate test (reference value: 5.02 +/- 0.09 sec); type: functional; conditions: 0.5 h
Rattus norvegicus [9] = test: Anti-inflammatory activity in Wistar rat assessed as inhibition of carrageenan-induced paw edema at 10 mg/kg, ip pretreated for 1 hr followed by carrageenan challenge and measured after 1 hr relative to control (reference value: 0.00 +/-0.02 %); type: functional; conditions: time 2 hrs
Rattus norvegicus [10] = test: Anti-inflammatory activity in Wistar rat assessed as inhibition of carrageenan-induced paw edema at 10 mg/kg, ip pretreated for 1 hr followed by carrageenan challenge and measured after 3 hr relative to control (reference value: 0.00 +/-0.1 %); type: functional; conditions: time 4 hrs
Streptococcus pyogenes = test: Antibacterial activity against Streptococcus pyogenes ATCC 19615 incubated for 18 hrs by agar dilution method; type: functional
Rattus norvegicus [11] = test: Anti-inflammatory activity in Wistar rat assessed as inhibition of carrageenan-induced paw edema at 10 mg/kg, ip pretreated for 1 hr followed by carrageenan challenge and measured after 2 hr relative to control (reference value: 0.00 +/-0.03 %); type: functional; conditions: time 3 hrs
Mus musculus [12] = test: Analgesic activity in albino mouse assessed protection against acetic acid-induced abdominal writhing at 10 mg/kg, ip pretreated for 1 hr followed by acetic acid challenge and measured starting 5 mins post acetic acid challenge for 10 mins relative to control (reference value: 0 %); type: functional; conditions: time 75 min, 1.25 h
Rattus norvegicus [13] = test: Antiinflammatory activity in Wistar rat model of carrageenan-induced paw edema assessed as reduction in thickness of paw edema at 10 mg/kg, ip pretreated for 1 hr followed by carrageenan challenge and measured after 1 hr (reference value: 2.41 +/-0.05 mm); type: functional; conditions: time 1 hr after carrageenan
Mus musculus [14] = test: Analgesic activity in albino mouse assessed as protection at 10 mg/kg, ip measured after 90 mins by hot plate test (reference value: 0 %); type: functional; conditions: 1.5 h
Mus musculus [15] = test: Analgesic activity in albino mouse assessed protection against acetic acid-induced abdominal writhing at 10 mg/kg, ip pretreated for 1 hr followed by acetic acid challenge and measured starting 5 mins post acetic acid challenge for 10 mins relative to indomethacin; type: functional; conditions: time 75 min, 1.25 h
Salmonella typhimurium = test: Antibacterial activity against Salmonella typhimurium ATCC 19430 incubated for 18 hrs by agar dilution assay; type: functional, Salmonella enterica subsp. enterica serovar Typhimurium; conditions: Salmonella enterica
Rattus norvegicus [16] = test: Anti-inflammatory activity in Wistar rat assessed as inhibition of carrageenan-induced paw edema at 10 mg/kg, ip pretreated for 1 hr followed by carrageenan challenge and measured after 24 hr relative to control (reference value: 0.00 +/-0.3 %); type: functional; conditions: time 25 hrs
[17] = Ulcerogenic activity in fasted albino mouse assessed as ulcer index in gastric mucosa at 10 mg/kg, po for 3 days (reference value: 0); type: toxicity, organism-based; conditions: in vivo, 72 h, time 3 day
[18] = Toxicity in albino mouse assessed as induction of toxic symptoms at 50 to 100 mg/kg, ip measured after 24 hrs; type: organism-based; conditions: in vivo, dose 50-100 mg/kg
Staphylococcus aureus = test: Antibacterial activity against Staphylococcus aureus ATCC 25923 incubated for 18 hrs by agar dilution method; type: functional
Mus musculus [19] = test: Analgesic activity in albino mouse assessed as protection at 10 mg/kg, ip measured after 60 mins by hot plate test (reference value: 0 %); type: functional; conditions: 1 h
Mus musculus [20] = test: Analgesic activity in albino mouse assessed as forepaw licking/jumping latency time at 10 mg/kg, ip measured after 60 mins by hot plate test (reference value: 3.42 +/- 0.03 sec); type: functional; conditions: 1 h
Mus musculus [21] = test: Analgesic activity in albino mouse assessed as protection at 10 mg/kg, ip measured after 120 mins by hot plate test (reference value: 0 %); type: functional; conditions: 2 h
Mus musculus [22] = test: Analgesic activity in albino mouse assessed as forepaw licking/jumping latency time at 10 mg/kg, ip measured after 120 mins by hot plate test (reference value: 2.62 +/- 0.06 sec); type: functional; conditions: 2 h
Splenocyte [23] = test: Immunomodulatory activity in Swiss albino mouse splenocytes assessed as cell viability at 10 uM by measuring stimulation index incubated for 72 hrs in presence of mitogenic stimulus phytohaemagglutinin by MTT assay (reference value: 1.00 +/- 0.24); type: functional
Rattus norvegicus [24] = test: Anti-inflammatory activity in Wistar rat assessed as inhibition of carrageenan-induced paw edema at 10 mg/kg, ip pretreated for 1 hr followed by carrageenan challenge and measured after 4 hr relative to indomethacin; type: functional; conditions: time 5 hrs
Mus musculus [25] = test: Analgesic activity in albino mouse assessed as forepaw licking/jumping latency time at 10 mg/kg, ip measured after 90 mins by hot plate test (reference value: 2.72 +/- 0.01 sec); type: functional; conditions: 1.5 h
[26] = Ulcerogenic activity in fasted albino mouse assessed as average number of ulcers in gastric mucosa at 10 mg/kg, po for 3 days (reference value: 0); type: toxicity, organism-based; conditions: in vivo, 72 h, time 3 day
Mus musculus [27] = test: Analgesic activity in albino mouse assessed as protection at 10 mg/kg, ip measured after 120 mins by hot plate test relative to indomethacin; type: functional; conditions: 2 h
Rattus norvegicus [28] = test: Anti-inflammatory activity in Wistar rat assessed as inhibition of carrageenan-induced paw edema at 10 mg/kg, ip pretreated for 1 hr followed by carrageenan challenge and measured after 4 hr relative to control (reference value: 0.00 +/-0.4 %); type: functional; conditions: time 5 hrs
Rattus norvegicus [29] = test: Antiinflammatory activity in Wistar rat model of carrageenan-induced paw edema assessed as reduction in thickness of paw edema at 10 mg/kg, ip pretreated for 1 hr followed by carrageenan challenge and measured after 2 hrs (reference value: 2.06 +/-0.09 mm); type: functional; conditions: time 3 hrs
Mus musculus [30] = test: Analgesic activity in albino mouse assessed reduction in acetic acid-induced abdominal writhing by measuring writing reflex at 10 mg/kg, ip pretreated for 1 hr followed by acetic acid challenge and measured starting 5 mins post acetic acid challenge for 10 mins (reference value: 42.4 +/- 1.02); type: functional; conditions: time 75 min, 1.25 h
Rattus norvegicus [31] = test: Antiinflammatory activity in Wistar rat model of carrageenan-induced paw edema assessed as reduction in thickness of paw edema at 10 mg/kg, ip pretreated for 1 hr followed by carrageenan challenge and measured after 24 hrs (reference value: 0.83 +/-0.08 mm); type: functional; conditions: time 25 hrs
Rattus norvegicus [32] = test: Antiinflammatory activity in Wistar rat model of carrageenan-induced paw edema assessed as reduction in thickness of paw edema at 10 mg/kg, ip pretreated for 1 hr followed by carrageenan challenge and measured after 4 hrs (reference value: 1.40 +/-0.10 mm); type: functional; conditions: time 5 hrs

MIC (Pseudomonas aeruginosa) | MIC (Candida albicans) | MIC (Streptococcus pyogenes) | MIC (Salmonella typhimurium) | Structure (SMILES) | Activity [1] [%] | Activity (Peritoneal macrophage [2]) [%] | Activity (Mus musculus [3]) [%] | viability at 10 µM (Splenocyte [4]) [%] | Activity [5] | Activity (Peritoneal macrophage [6]) [µM] | Activity (Rattus norvegicus [7]) [mm] | Time (Mus musculus [8]) [s] | inhibition in vivo at 10 mg/kg (Rattus norvegicus [9]) [%] | inhibition in vivo at 10 mg/kg (Rattus norvegicus [10]) [%] | inhibition in vivo at 10 mg/kg (Rattus norvegicus [11]) [%] | Activity (Mus musculus [12]) [%] | Activity (Rattus norvegicus [13]) [mm] | Activity (Mus musculus [14]) [%] | Activity (Mus musculus [15]) [%] | inhibition in vivo at 10 mg/kg (Rattus norvegicus [16]) [%] | further results
1 µg/mL and 1.28 µM | 0.5 µg/mL and 0.642 µM | 0.125 µg/mL and 0.161 µM | 0.5 µg/mL and 0.642 µM | COc1cc(/C=C/C(=O)/C=C(O)/C=C/c2ccc(OC(=O)[C@@H](C)NC(=O)OCc3ccccc3)c(OC)c2)ccc1OC(=O)[C@@H](C)NC(=O)OCc1ccccc1 | 0 | 35.45 | 11.6 | 76 | 0 | 17.63 | 0.09 | 5.6 | 82 | 95 | 89 | 66 | 0.43 | 25.7 | 107.1 | 49 | UI [17]: 0; Activity [18]: Non-Toxic; MIC (Staphylococcus aureus): 0.5 µg/mL and 0.642 µM; Activity (Mus musculus [19]): 8.2%; Time (Mus musculus [20]): 3.7 s; Activity (Mus musculus [21]): 25.2%; Time (Mus musculus [22]): 3.28 s; Activity_index (Splenocyte [23]): 1.59; inhibition in vivo at 10 mg/kg (Rattus norvegicus [24]): 115%; Time (Mus musculus [25]): 3.42 s; Activity [26]: 0; Activity (Mus musculus [27]): 60%; inhibition in vivo at 10 mg/kg (Rattus norvegicus [28]): 100%; Activity (Rattus norvegicus [29]): 0.23 mm; Activity (Mus musculus [30]): 14.4; Activity (Rattus norvegicus [31]): 0.42 mm; Activity (Rattus norvegicus [32]): 0 mm
2 µg/mL and 1.86 µM | 0.5 µg/mL and 0.465 µM | 0.125 µg/mL and 0.116 µM | 2 µg/mL and 1.86 µM | COc1cc(/C=C/C(=O)/C=C(O)/C=C/c2ccc(OC(=O)[C@H](CCSC)NC(=O)OCC3c4ccccc4-c4ccccc43)c(OC)c2)ccc1OC(=O)[C@H](CCSC)NC(=O)OCC1c2ccccc2-c2ccccc21 | 0 | 47.91 | 35.9 | 113 | 0 | 14.23 | 0.45 | 6.82 | 46 | 75 | 73 | 61.8 | 1.3 | 24.3 | 100.3 | 23 | UI [17]: 0; Activity [18]: Non-Toxic; MIC (Staphylococcus aureus): 0.25 µg/mL and 0.233 µM; Activity (Mus musculus [19]): 46.8%; Time (Mus musculus [20]): 5.02 s; Activity (Mus musculus [21]): 13.7%; Time (Mus musculus [22]): 2.98 s; Activity_index (Splenocyte [23]): 1.07; inhibition in vivo at 10 mg/kg (Rattus norvegicus [24]): 113%; Time (Mus musculus [25]): 3.38 s; Activity [26]: 0; Activity (Mus musculus [27]): 32.6%; inhibition in vivo at 10 mg/kg (Rattus norvegicus [28]): 98%; Activity (Rattus norvegicus [29]): 0.56 mm; Activity (Mus musculus [30]): 16.2; Activity (Rattus norvegicus [31]): 0.64 mm; Activity (Rattus norvegicus [32]): 0.03 mm
